Reference: patent US11261187B2, “Compounds and methods for targeting HSP90” (Duke University, priority 2016, dated 2022)

Assays:
[1] = tested on: MDA-MB-468 cells; test: 100 internalization assay in MDA-MB-468 cells; format: cell-based; settings: MDA-MB-468 cells; dose and time series
Protocol: (§1) Cells were plated on uncoated 18-mm round coverslips in 12 well plates at 150,000 cells/well and were allowed to adhere overnight. 100, in a stock solution in DMSO, was diluted in serum-free/phenol red-free DMEM. After drug incubation, the cells were washed twice with ice-cold PBS, fixed with 1% PFA in PBS for 10 min, and stained with 5 μg/mL wheat germ agglutinin-488 (WGA-488, Invitrogen, Waltham, Mass.) and either Hoescht or DAPI. The coverslips were washed and mounted onto microscope slides using FluorSave mounting reagent (Millipore, Darmstadt, Germany). Slides were imaged on a Leica SP5 confocal microscope.
(§2) Images were analyzed for fluorescence and puncta using ImageJ software using a non-biased, high-throughput macro. In brief, cells were selected using an expanded selection from the DAPI channel. The regions of interest were then masked, a watershed filter was applied to split adjacent cells into separate cells, and the regions of interest were applied to the 100 channel to measure fluorescence and puncta. High resolution confocal stacks were deconvolved with Hyugen's Deconvolution Software or AiryScan.
(§3) To analyze the internalization of eHsp90 in transformed cells, the 4T1 cell model was utilized.

[2] = tested on: MMTV-neu spontaneous mammary tumor; test: Cryo-imaging and histology of MMTV-neu spontaneous mammary tumor mice; format: in vivo, mouse
Source text: […] Slices of 5-μm thickness were cut and placed on slides to dry overnight. Slides were then deparaffinized and either H&E stained or rehydrated and stained with DAPI before mounting. Slides were imaged at 20× magnification on a Zeiss Axio Imager widefield fluorescence microscope equipped with a color camera.
To investigate the tumor specificity and eHsp90 internalization in a more relevant model of human breast cancer, the MMTV-neu spontaneous mammary tumor mouse model was used (FIGS. 4c-d). […] Following cryoslicing, each 40 μm slice was imaged for fluorescence and brightfield. […] Previous studies have reported the autofluorescence of Leydig cells in the testes due to the presence of a lipophilic pigment.

[3] = Storage stability by LC/MS at a later date; format: physicochemical; settings: primarily to the hydride
Protocol: Compound 116 (50 mg, 33 μmol), hexamethylditin (14 mg, 9 μL, 42 μmol) and tetrakis triphenylphosphine palladium(0) (1 mg 1 μmol) were slurried in dioxane (1 mL), purged with nitrogen for 30 m and heated to 100° C. for an hour. The reaction was mixture was adsorbed onto silica gel and chromatographed (50 g C18, 0.2% formic acid to 100% MeOH) to give product 118 (13.9 mg, 27%) as a blue solid. LC/MS gives a single peak with a little shoulder with m/z=785.8 [M+2H]^2+ as part of a cluster typical of Tin compounds.

[4] = tested on: eHsp90; test: Live imaging and tracking of puncta (lattice light sheet microscope); format: cell-based; settings: 10 μM 100 competed with 100 μM HS-10
Protocol: Live imaging was also performed on cells treated with 100 alone, 101, or 100 and HS-10, and spots were tracked over time to investigate any differences in puncta movement and size. […] Puncta detected with 100 were competed with HS-10 (FIG. 3d).

[5] = tested on: eHsp90; test: Competition of fluorescent probe binding to eHsp90 on cells by untethered Hsp90 inhibitors; format: cell-based
Protocol: Cells were plated on uncoated 18-mm round coverslips in 12 well plates at 150,000 cells/well and were allowed to adhere overnight. 100, in a stock solution in DMSO, was diluted in serum-free/phenol red-free DMEM. […] The coverslips were washed and mounted onto microscope slides using FluorSave mounting reagent (Millipore, Darmstadt, Germany). Slides were imaged on a Leica SP5 confocal microscope.
as §2, §3

[6] = tested on: MDA-MB-468 cells; test: Confocal imaging of eHsp90 puncta in probe-treated tumor cells; format: cell-based
Protocol: as §1, §2
Using a standard fluorescence curve, the concentration within the puncta of 100 was estimated to be 4.66±0.05 μM. […]

[7] = tested on: non-malignant cells; test: Puncta formation on non-malignant cells; format: cell-based
Protocol: Using a standard fluorescence curve, the concentration within the puncta of 100 was estimated to be 4.66±0.05 μM. Based on puncta volume and a ratio of 1:1 for 100:Hsp90 (as each monomer of Hsp90 has a single ATP-binding site), the larger puncta are estimated to contain 2659±105 monomers of eHsp90. Accumulation of the puncta intracellularly is time-dependent (FIG. 3b). Formation of the puncta is eHsp90-dependent and not related to any physiochemical properties of the probes themselves. […] This diffusion may be a result of exchange with intracellular ATP or the degradation of the internalized eHsp90. Probe aggregates alone would not be expected to spontaneously dissipate without the addition of some form of organic solvent.

Compound: Cc1nn(-c2ccc(C(=O)N(C)C)c(NCCCOCCOCCOCCOCCOCCCNCc3ccc(C(=C\C=C4\N(CCCCS(=O)(=O)O)c5ccccc5C4(C)C)/C=C/C4=[N+](CCCCS(=O)(=O)[O-])c5ccccc5C4(C)C)cc3)c2)c2c1C(=O)CC(C)(C)C2 [Compound 101, 4-(2-((1E,3Z)-5-((E)-3,3-dimethyl-1-(4-sulfobutyl)indolin-2-ylidene)-3-(4-(21-((2-(dimethylcarbamoyl)-5-(3,6,6-trimethyl-4-oxo-4,5,6,7-tetrahydro-1H-indazol-1-yl)phenyl)amino)-6,9,12,15,18-pentaoxa-2-azahenicosyl)phenyl)penta-1,3-dien-1-yl)-3,3-dimethyl-3H-indol-1-ium-1-yl)butane-1-sulfonate]
- uptake of probe [1]: only weakly internalized at higher concentrations
- probe uptake in MMTV-neu mammary tumor ([2]; 25 nmol i.v., 6 hours, cryoslicing and histology): No uptake was observed
- specific drug fluorescence in duct epithelium of tumor cells (histology) ([2]; FIG. 5, serial sections, DAPI/Cy5): not in the 101-treated mouse

Compound: Cc1nn(-c2ccc(C(N)=O)c(NCCCOCCOCCOCCOCCOCCCN(Cc3ccc(C(=C\C=C4\N(CCCCS(=O)(=O)O)c5ccccc5C4(C)C)/C=C/C4=[N+](CCCCS(=O)(=O)[O-])c5ccccc5C4(C)C)cc3)Cc3ccc[c]([Sn]([CH3])([CH3])[CH3])c3)c2)c2c1C(=O)CC(C)(C)C2 [Compound 118, 4-(2-((E,3Z)-3-(4-(21-((2-carbamoyl-5-(3,6,6-trimethyl-4-oxo-4,5,6,7-tetrahydro-1H-indazol-1-yl)phenyl)amino)-2-(3-(trimethylstannyl)benzyl)-6,9,12,15,18-pentaoxa-2-azahenicosyl)phenyl)-5-((E)-3,3-dimethyl-1-(4-sulfobutyl)indolin-2-ylidene)penta-1,3-dien-1-yl)-3,3-dimethyl-3H-indol-1-ium-1-yl)butane-1-sulfonate]
- stability on storage [3]: significant decomposition

Compound: Cc1nn(-c2ccc(C(N)=O)c(N[C@H]3CC[C@H](O)CC3)c2)c2c1C(=O)CC(C)(C)C2 [HS-10]
- competition of puncta detected with 100 [4]: competed
- competition of binding of probe 100 to eHsp90 ([5]; MDA-MB-468 cells, 100 at 25 μM, 45 min, 1 μM HS-10 or 10 μM PUH71): competed
- blocking of binding of 100 and HS-27 to eHsp90 ([5]; untethered Hsp90 inhibitors): blocked

Compound: CCOCCCNCc1ccc(C(=C\C=C2\N(CCCCS(=O)(=O)O)c3ccccc3C2(C)C)/C=C/C2=[N+](CCCCS(=O)(=O)[O-])c3ccccc3C2(C)C)cc1 [Compound 19, 4-(2-((1E,3Z)-5-((E)-3,3-dimethyl-1-(4-sulfobutyl)indolin-2-ylidene)-3-(4-(((3-ethoxypropyl)amino)methyl)phenyl)penta-1,3-dien-1-yl)-3,3-dimethyl-3H-indol-1-ium-1-yl)butane-1-sulfonate]
- puncta formation when applied to cells [6]: does not form puncta

Compound: Cc1nn(-c2ccc(C(N)=O)c(NCCCOCCOCCOCCOCCOCCCNC(=S)Nc3ccc4c(c3)C(=O)OC43c4ccc(O)cc4Oc4cc(O)ccc43)c2)c2c1C(=O)CC(C)(C)C2 [HS-27, reference compound]
- puncta formation on non-malignant cells [7]: puncta do not form
- puncta formation when applied to cells [6]: forms puncta
